Data reported in the supplement of paper PMC11061612.

Experiments:
[1] = tested on: NB69 (Neuroblastoma); test: combination Emax (second highest fraction inhibited in the dose matrix, 72 h); higher = more inhibition; extreme values may be limits of the assay
Outline: (§1)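 After 24 hours at 37°C and 5% CO2 in 1536-well plates, cells in DMEM/F12 or RPMI plus 10% FBS received two-drug dose matrices for 72 hours. Viability came from CellTiter-Glo 2.0 luminescence and was scaled as inhibition, anchored at 0 by vehicle wells and at 1 by blank wells. Combination Emax is taken as the second-highest inhibition in the matrix, and Bliss excess as the observed combination effect less EA + EB − EA·EB, with EA and EB the single-agent effects.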

[2] = tested on: OSC-20 (Oral Cavity Carcinoma); test: as above
Outline: as §1

C=CCn1c(=O)c2cnc(Nc3ccc(N4CCN(C)CC4)cc3)nc2n1-c1cccc(C(C)(C)O)n1 [AZD1775] + CCc1c2c(nc3ccc(O)cc13)-c1cc3c(c(=O)n1C2)COC(=O)[C@]3(O)CC [SN-38] (first compound max 1 µM, partner max 0.3 µM)
combination Emax [1]: 0.997

C=CCn1c(=O)c2cnc(Nc3ccc(N4CCN(C)CC4)cc3)nc2n1-c1cccc(C(C)(C)O)n1 [AZD1775] + Nc1ccn([C@@H]2O[C@H](CO)[C@@H](O)C2(F)F)c(=O)n1 [Gemcitabine] (first compound max 1 µM, partner max 0.3 µM)
combination Emax [1]: 1

CN(CCO)CC[C@H](CSc1ccccc1)Nc1ccc(S(=O)(=O)NC(=O)c2ccc(N3CCC([C@@H](O)c4ccccc4-c4ccc(Cl)cc4)CC3)cc2)cc1S(=O)(=O)C(F)(F)F [AZD4320] + CS(=O)(=O)CCNCc1ccc(-c2ccc3ncnc(Nc4ccc(OCc5cccc(F)c5)c(Cl)c4)c3c2)o1 [Lapatinib] (first compound max 1 µM, 7x7, partner max 10 µM)
combination Emax [1]: 0.983

COc1nnc2ccc(N3CCC(c4ccc(OCCN5CCN(C)C(=O)[C@H]5C)cc4)CC3)nn12 [AZD5153] + C=CCn1c(=O)c2cnc(Nc3ccc(N4CCN(C)CC4)cc3)nc2n1-c1cccc(C(C)(C)O)n1 [AZD1775] (first compound max 1 µM, partner max 1 µM)
combination Emax [1]: 0.99
combination Emax [2]: 0.284

COc1nnc2ccc(N3CCC(c4ccc(OCCN5CCN(C)C(=O)[C@H]5C)cc4)CC3)nn12 [AZD5153] + CC1(C)CCC(CN2CCN(c3ccc(C(=O)NS(=O)(=O)c4ccc(NCC5CCOCC5)c([N+](=O)[O-])c4)c(Oc4cnc5[nH]ccc5c4)c3)CC2)=C(c2ccc(Cl)cc2)C1 [Venetoclax] (first compound max 1 µM, 7x7, partner max 1 µM)
combination Emax [1]: 0.952
combination Emax [2]: 0.129

COc1nnc2ccc(N3CCC(c4ccc(OCCN5CCN(C)C(=O)[C@H]5C)cc4)CC3)nn12 [AZD5153] + CCN(CCO)CCCOc1ccc2c(Nc3cc(CC(=O)Nc4cccc(F)c4)[nH]n3)ncnc2c1 [AZD2811] (first compound max 1 µM, 7x7, partner max 1 µM)
combination Emax [1]: 0.952
combination Emax [2]: 0.261

COc1nnc2ccc(N3CCC(c4ccc(OCCN5CCN(C)C(=O)[C@H]5C)cc4)CC3)nn12 [AZD5153] + C[C@@H]1COCCN1C2=NC(=NC(=C2)C3(CC3)[S@](=N)(=O)C)C4=C5C=CNC5=NC=C4 [AZD6738] (first compound max 1 µM, 7x7, partner max 10 µM)
combination Emax [1]: 0.991
combination Emax [2]: 0.309

COc1nnc2ccc(N3CCC(c4ccc(OCCN5CCN(C)C(=O)[C@H]5C)cc4)CC3)nn12 [AZD5153] + Cc1c2c(nn1C)CSCc1cc(n(C)n1)CSc1cc(c3ccccc3c1)OCCCc1c(C(=O)O)n(C)c3c-2c(Cl)ccc13 [AZD5991] (first compound max 1 µM, 7x7, partner max 1 µM)
combination Emax [1]: 0.998
combination Emax [2]: 0.199

COc1nnc2ccc(N3CCC(c4ccc(OCCN5CCN(C)C(=O)[C@H]5C)cc4)CC3)nn12 [AZD5153] + Cn1cnc2c(F)c(Nc3ccc(Br)cc3Cl)c(C(=O)NOCCO)cc21 [Selumetinib] (first compound max 1 µM, 7x7, partner max 10 µM)
combination Emax [1]: 1
combination Emax [2]: 0.23

Cc1c2c(nn1C)CSCc1cc(n(C)n1)CSc1cc(c3ccccc3c1)OCCCc1c(C(=O)O)n(C)c3c-2c(Cl)ccc13 [AZD5991] + CC(=O)O[C@H]1C(=O)[C@@]2(C)[C@H]([C@H](OC(=O)c3ccccc3)[C@]3(O)C[C@H](OC(=O)[C@H](O)[C@@H](NC(=O)c4ccccc4)c4ccccc4)C(C)=C1C3(C)C)[C@]1(OC(C)=O)CO[C@@H]1C[C@@H]2O [Paclitaxel] (first compound max 1 µM, 7x7, partner max 3 µM)
combination Emax [1]: 1

Cc1c2c(nn1C)CSCc1cc(n(C)n1)CSc1cc(c3ccccc3c1)OCCCc1c(C(=O)O)n(C)c3c-2c(Cl)ccc13 [AZD5991] + CS(=O)(=O)CCNCc1ccc(-c2ccc3ncnc(Nc4ccc(OCc5cccc(F)c5)c(Cl)c4)c3c2)o1 [Lapatinib] (first compound max 1 µM, 7x7, partner max 10 µM)
combination Emax [1]: 0.902

Cc1c2c(nn1C)CSCc1cc(n(C)n1)CSc1cc(c3ccccc3c1)OCCCc1c(C(=O)O)n(C)c3c-2c(Cl)ccc13 [AZD5991] + Nc1ccn([C@@H]2O[C@H](CO)[C@@H](O)C2(F)F)c(=O)n1 [Gemcitabine] (first compound max 1 µM, 7x7, partner max 0.3 µM)
combination Emax [1]: 0.99

C[C@@H]1COCCN1c1cc(C2([S@](C)(=N)=O)CC2)nc(-c2ccnc3[nH]ccc23)n1 [AZD6738] + C1CC(C1)(C(=O)[O-])C(=O)[O-].N.N.[Pt+2] [Carboplatin] (first compound max 10 µM, 7x7, partner max 10 µM)
combination Emax [1]: 0.857

C[C@@H]1COCCN1c1cc(C2([S@](C)(=N)=O)CC2)nc(-c2ccnc3[nH]ccc23)n1 [AZD6738] + Nc1ccn([C@@H]2O[C@H](CO)[C@@H](O)C2(F)F)c(=O)n1 [Gemcitabine] (first compound max 10 µM, 7x7, partner max 0.3 µM)
combination Emax [1]: 1

C[C@@H](Nc1cc(F)cc(F)c1)c1cc(C(=O)N(C)C)cc2c(=O)cc(N3CCOCC3)oc12 [AZD8186] + C1CN(CCC1(C(=O)N[C@@H](CCO)C2=CC=C(C=C2)Cl)N)C3=NC=NC4=C3C=CN4 [AZD5363] (first compound max 10 µM, 7x7, partner max 10 µM)
combination Emax [1]: 0.659

C[C@@H](Nc1cc(F)cc(F)c1)c1cc(C(=O)N(C)C)cc2c(=O)cc(N3CCOCC3)oc12 [AZD8186] + CC(=O)c1c(C)c2cnc(Nc3ccc(N4CCNCC4)cn3)nc2n(C2CCCC2)c1=O [Palbociclib] (first compound max 10 µM, 7x7, partner max 10 µM)
combination Emax [1]: 0.927

C[C@@H](Oc1cc(-c2cnn(C3CCNCC3)c2)cnc1N)c1c(Cl)ccc(F)c1Cl [Crizotinib] + CC1=C(C(=CC=C1)Cl)NC(=O)C2=CN=C(S2)NC3=CC(=NC(=N3)C)N4CCN(CC4)CCO [Dasatinib] (first compound max 10 µM, 7x7, partner max 2 µM)
combination Emax [1]: 0.951

C[C@@H](Oc1cc(-c2cnn(C3CCNCC3)c2)cnc1N)c1c(Cl)ccc(F)c1Cl [Crizotinib] + Cn1cnc2c(F)c(Nc3ccc(Br)cc3Cl)c(C(=O)NOCCO)cc21 [Selumetinib] (first compound max 10 µM, 7x7, partner max 10 µM)
combination Emax [1]: 1

CS(=O)(=O)CCNCc1ccc(-c2ccc3ncnc(Nc4ccc(OCc5cccc(F)c5)c(Cl)c4)c3c2)o1 [Lapatinib] + Cn1cnc2c(F)c(Nc3ccc(Br)cc3Cl)c(C(=O)NOCCO)cc21 [Selumetinib] (first compound max 10 µM, 7x7, partner max 10 µM)
combination Emax [1]: 0.916

CS(=O)(=O)CCNCc1ccc(-c2ccc3ncnc(Nc4ccc(OCc5cccc(F)c5)c(Cl)c4)c3c2)o1 [Lapatinib] + NC1(c2ccc(-c3nc4ccn5c(=O)[nH]nc5c4cc3-c3ccccc3)cc2)CCC1 [MK-2206] (first compound max 10 µM, 7x7, partner max 10 µM)
combination Emax [1]: 0.941

O=C(c1cc(Cc2n[nH]c(=O)c3ccccc23)ccc1F)N1CCN(C(=O)C2CC2)CC1 [Olaparib] + CC1(C)CCC(CN2CCN(c3ccc(C(=O)NS(=O)(=O)c4ccc(NCC5CCOCC5)c([N+](=O)[O-])c4)c(Oc4cnc5[nH]ccc5c4)c3)CC2)=C(c2ccc(Cl)cc2)C1 [Venetoclax] (first compound max 10 µM, 7x7, partner max 1 µM)
combination Emax [1]: 0.643

O=C(c1cc(Cc2n[nH]c(=O)c3ccccc23)ccc1F)N1CCN(C(=O)C2CC2)CC1 [Olaparib] + CN(CC[C@H](CSC1=CC=CC=C1)NC2=C(C=C(C=C2)S(=O)(=O)NC(=O)C3=CC=C(C=C3)N4CCC(CC4)[C@H](C5=CC=CC=C5C6=CC=C(C=C6)Cl)O)S(=O)(=O)C(F)(F)F)CCO [AZD4320] (first compound max 10 µM, 7x7, partner max 1 µM)
combination Emax [1]: 0.943

O=C(c1cc(Cc2n[nH]c(=O)c3ccccc23)ccc1F)N1CCN(C(=O)C2CC2)CC1 [Olaparib] + COc1nnc2ccc(N3CCC(c4ccc(OCCN5CCN(C)C(=O)[C@H]5C)cc4)CC3)nn12 [AZD5153] (first compound max 10 µM, 7x7, partner max 1 µM)
combination Emax [1]: 0.959

O=C(c1cc(Cc2n[nH]c(=O)c3ccccc23)ccc1F)N1CCN(C(=O)C2CC2)CC1 [Olaparib] + Cc1c2c(nn1C)CSCc1cc(n(C)n1)CSc1cc(c3ccccc3c1)OCCCc1c(C(=O)O)n(C)c3c-2c(Cl)ccc13 [AZD5991] (first compound max 10 µM, 7x7, partner max 1 µM)
combination Emax [1]: 0.886

Cc1nc(-c2cn3c(n2)-c2ccc(-c4cnn(C(C)(C)C(N)=O)c4)cc2OCC3)n(C(C)C)n1 [Taselisib] + O=C(Nc1ccc2[nH]nc(-c3ccncc3)c2c1)[C@@H]1CCN(CC(=O)N2CCN(c3ccc(-c4ncccn4)cc3)CC2)C1 [SCH772984] (first compound max 10 µM, 7x7, partner max 5 µM)
combination Emax [1]: 0.997

CC1(C)CCC(CN2CCN(c3ccc(C(=O)NS(=O)(=O)c4ccc(NCC5CCOCC5)c([N+](=O)[O-])c4)c(Oc4cnc5[nH]ccc5c4)c3)CC2)=C(c2ccc(Cl)cc2)C1 [Venetoclax] + CS(=O)(=O)CCNCc1ccc(-c2ccc3ncnc(Nc4ccc(OCc5cccc(F)c5)c(Cl)c4)c3c2)o1 [Lapatinib] (first compound max 1 µM, 7x7, partner max 10 µM)
combination Emax [1]: 0.598
